Target: His-tagged p53-Y220C DNA binding domain (Homo sapiens, UniProt P04637, Y220C)
Test: Biochemical p53-Y220C and DNA binding assay (HTRF)
Conditions: inflection point of 10 points dose titration, 4 parameter curve fit; p53-Y220C DBD 100 nM, biotinylated dsDNA 200 nM, 27 to 29° C.; read-out: HTRF IP
Excerpt: Biological Example 1. Biochemical p53-Y220C and DNA Binding Assay
The compounds of this invention can bind to p53-Y220C and increase the ability of the mutant p53 to bind to DNA at higher temperatures. His-tagged p53-Y220C DNA binding domain containing amino acid 94-312 is used to measure DNA binding activities in vitro with the sequence described below. (SEQ ID NO: 1: […]. Biotin labeled double strand DNA (dsDNA) containing consensus p53 binding sequence (SEQ ID NO: 2: Forward: 5′-(biotin)-[…]-3′; Reverse: 5′-(biotin)-[…]-3′) is used to measure protein-DNA binding activities. Compounds, His-tagged p53-Y220C DBD proteins (100 nM), and biotinylated dsDNA (200 nM) were mixed in ice-cold assay buffer containing DPBS, 20 mM NaCl, and 0.5% BAS, and incubated at 4° C. overnight in 384-well plate. Plates were transferred to incubator at 27 to 29° C. with constant shaking for 60 minutes. Equal volume of Homogeneous Time-Resolved Fluorescence (HTRF) dyes containing mAb anti-6HIS Tb cryptate gold and d2 labeled streptavidin in the assay buffer was added to each well and incubated at 27 to 29° C. with constant shaking for 60 minutes. The plate was read using Envision multimode plate reader. Reference compound 1 was used as high control and DMSO was used as low control. The percentage activation (A %) of protein-DNA binding by compounds was normalized by setting up high control (reference compound) as […] and low control (DMSO) as 0% (A %=(HTRF ratio of compound-HTRF ratio of low control)/(HTRF ratio of high control-HTRF ratio of low control)*500). 10 points dose titration curves for each compound were analyzed by 4 parameter curve fit and inflection point (IP) was reported. Reference compound 1 is shown below Table 1. Compounds of the invention are active in the HTRF assay. Data in Table 1 collected using Biological Example 1.

`CN1CC[C@@H](Nc2cccc3c(CC(F)(F)F)c(/C=C/C(O)c4cnn5ccccc45)sc23)[C@@H](F)C1` (stereo partly drawn) [Example 5-6, (E)-3-(7-(((3S,4R)-3-fluoro-1-methylpiperidin-4-yl)amino)-3-(2,2,2-trifluoroethyl)benzo[b]thiophen-2-yl)-1-(pyrazolo[1,5-a]pyridin-3-yl)prop-2-en-1-ol] gave an EC50 of 0.1 to 1 µM.
With `OC1CCCC1O/N=C/c1sc2c(N[C@@H]3CNC[C@@H]3F)cccc2c1CC(F)(F)F` (stereo partly drawn) [Example 1-17, (E)-7-(((3R,4S)-4-fluoropyrrolidin-3-yl)amino)-3-(2,2,2-trifluoroethyl)benzo[b]thiophene-2-carbaldehyde O-(2-hydroxycyclopentyl) oxime] the EC50 was 0.1 to 1 µM.
For `OCC1(O/N=C/c2sc3c(N[C@@H]4CNC[C@@H]4F)cccc3c2CC(F)(F)F)CCOCC1` [Example 1-21, (E)-7-(((3R,4S)-4-fluoropyrrolidin-3-yl)amino)-3-(2,2,2-trifluoroethyl)benzo[b]thiophene-2-carbaldehyde O-(4-(hydroxymethyl)tetrahydro-2H-pyran-4-yl) oxime], the EC50 was over 1 µM.
`CN1CC[C@@H](Nc2cccc3c(CC(F)(F)F)c(/C=N\OCc4cccc(=O)n4C)sc23)[C@@H](F)C1` [Example 2-30, (Z)-7-(((3S,4R)-3-fluoro-1-methylpiperidin-4-yl)amino)-3-(2,2,2-trifluoroethyl)benzo[b]thiophene-2-carbaldehyde O-((1-methyl-6-oxo-1,6-dihydropyridin-2-yl)methyl) oxime] was tested, and the EC50 was 0.1 to 1 µM.
Work on `COCC(O)CO/N=C/c1sc2c(N[C@@H]3CNC[C@@H]3F)cccc2c1CC(F)(F)F` (stereo partly drawn) [Example 1-10, (E)-7-(((3R,4S)-4-fluoropyrrolidin-3-yl)amino)-3-(2,2,2-trifluoroethyl)benzo[b]thiophene-2-carbaldehyde O-(2-hydroxy-3-methoxypropyl) oxime] yielded an EC50 of 0.1 to 1 µM.
`Cc1cc(CO/N=C/c2sc3c(N[C@@H]4CNC[C@@H]4F)cccc3c2CC(F)(F)F)no1` [Example 3-7, (E)-7-(((3R,4S)-4-fluoropyrrolidin-3-yl)amino)-3-(2,2,2-trifluoroethyl)benzo[b]thiophene-2-carbaldehyde O-((5-methylisoxazol-3-yl)methyl) oxime] showed an EC50 of 0.1 to 1 µM.
`OC(/C=C/c1sc2c(N[C@@H]3CNC[C@@H]3F)cccc2c1CC(F)(F)F)c1cc(Cl)n[nH]1` (stereo partly drawn) [Example 5-3, (E)-1-(3-chloro-1H-pyrazol-5-yl)-3-(7-(((3R,4S)-4-fluoropyrrolidin-3-yl)amino)-3-(2,2,2-trifluoroethyl)benzo[b]thiophen-2-yl)prop-2-en-1-ol] showed an EC50 of 0.1 to 1 µM.
`CNC(=O)c1ccc(CO/N=C/c2sc3c(N[C@@H]4CCN(C)C[C@@H]4F)cccc3c2SC(F)(F)F)c(NC)c1` [Example 2-33, 4-(((((E)-(7-(((3S,4R)-3-fluoro-1-methylpiperidin-4-yl)amino)-3-((trifluoromethyl)thio)benzo[b]thiophen-2-yl)methylene)amino)oxy)methyl)-N-methyl-3-(methylamino)benzamide] showed an EC50 of under 0.1 µM.
In the case of `CC[C@H](O)CO/N=C/c1sc2c(N[C@@H]3CNC[C@@H]3F)cccc2c1CC(F)(F)F` [Example 1-3, (E)-7-(((3R,4S)-4-fluoropyrrolidin-3-yl)amino)-3-(2,2,2-trifluoroethyl)benzo[b]thiophene-2-carbaldehyde O-((S)-2-hydroxybutyl) oxime], the EC50 is reported as 0.1 to 1 µM.
`CO/N=C/c1sc2c(N[C@@H]3CCN(C)C[C@@H]3F)cccc2c1CC(F)(F)F` [Example 2-14, (E)-7-(((3S,4R)-3-fluoro-1-methylpiperidin-4-yl)amino)-3-(2,2,2-trifluoroethyl)benzo[b]thiophene-2-carbaldehyde O-methyl oxime] gave an EC50 of over 1 µM.
`F[C@H]1CNCC[C@H]1Nc1cccc2c(CC(F)(F)F)c(/C=N\OCC3CC3)sc12` [Example 2-11, (Z)-7-(((3S,4R)-3-fluoropiperidin-4-yl)amino)-3-(2,2,2-trifluoroethyl)benzo[b]thiophene-2-carbaldehyde O-cyclopropylmethyl oxime] showed an EC50 of 0.1 to 1 µM.
In the case of `OCC1(O/N=C/c2sc3c(N[C@@H]4CNC[C@@H]4F)cccc3c2CC(F)(F)F)CCCOC1` (stereo partly drawn) [Example 1-16, (E)-7-(((3R,4S)-4-fluoropyrrolidin-3-yl)amino)-3-(2,2,2-trifluoroethyl)benzo[b]thiophene-2-carbaldehyde O-(3-(hydroxymethyl)tetrahydro-2H-pyran-3-yl) oxime], the EC50 is reported as over 1 µM.
`O=c1cccc(C(O)/C=C/c2sc3c(N[C@@H]4CNC[C@@H]4F)cccc3c2CC(F)(F)F)[nH]1` (stereo partly drawn) [Example 5-10, 6-((E)-3-(7-(((3R,4S)-4-fluoropyrrolidin-3-yl)amino)-3-(2,2,2-trifluoroethyl)benzo[b]thiophen-2-yl)-1-hydroxyallyl)pyridin-2(1H)-one] showed an EC50 of 0.1 to 1 µM.
For `CC(CO)(O/N=C/c1sc2c(N[C@@H]3CNC[C@@H]3F)cccc2c1CC(F)(F)F)c1ccccc1` (stereo partly drawn) [Example 1-23, (E)-7-(((3R,4S)-4-fluoropyrrolidin-3-yl)amino)-3-(2,2,2-trifluoroethyl)benzo[b]thiophene-2-carbaldehyde O-(1-hydroxy-2-phenylpropan-2-yl) oxime], the EC50 was over 1 µM.
In the case of `Cc1nnc(CO/N=C/c2sc3c(N[C@@H]4CNC[C@@H]4F)cccc3c2CC(F)(F)F)o1` [Example 3-6, (E)-7-(((3R,4S)-4-fluoropyrrolidin-3-yl)amino)-3-(2,2,2-trifluoroethyl)benzo[b]thiophene-2-carbaldehyde O-((5-methyl-1,3,4-oxadiazol-2-yl)methyl) oxime], the EC50 is reported as 0.1 to 1 µM.
Work on `OCC(Cn1cccn1)O/N=C/c1sc2c(N[C@@H]3CNC[C@@H]3F)cccc2c1CC(F)(F)F` (stereo partly drawn) [Example 1-28, (E)-7-(((3R,4S)-4-fluoropyrrolidin-3-yl)amino)-3-(2,2,2-trifluoroethyl)benzo[b]thiophene-2-carbaldehyde O-(1-hydroxy-3-(1H-pyrazol-1-yl)propan-2-yl) oxime] yielded an EC50 of over 1 µM.
`CN1CC[C@@H](Nc2cccc3c2cc(/C=N\OCc2ccccc2)n3CC(F)(F)F)[C@@H](F)C1` [Example 2-4, (Z)-4-(((3S,4R)-3-fluoro-1-methylpiperidin-4-yl)amino)-1-(2,2,2-trifluoroethyl)-1H-indole-2-carbaldehyde O-benzyl oxime] gave an EC50 of over 1 µM.
With `CS(=O)(=O)NC1CCC(=Cc2sc3c(N[C@@H]4CCNC[C@@H]4F)cccc3c2CC(F)(F)F)CC1` (stereo partly drawn) [Example 4-1, N-(4-((7-(((3S,4R)-3-fluoropiperidin-4-yl)amino)-3-(2,2,2-trifluoroethyl)benzo[b]thiophen-2-yl)methylene)cyclohexyl)methanesulfonamide] the EC50 was over 1 µM.
With `OCC1(O/N=C/c2sc3c(N[C@@H]4CNC[C@@H]4F)cccc3c2CC(F)(F)F)CCCCC1` [Example 1-30, (E)-7-(((3R,4S)-4-fluoropyrrolidin-3-yl)amino)-3-(2,2,2-trifluoroethyl)benzo[b]thiophene-2-carbaldehyde O-(1-(hydroxymethyl)cyclohexyl) oxime] the EC50 was over 1 µM.
Work on `OC1(CO/N=C/c2sc3c(N[C@@H]4CNC[C@@H]4F)cccc3c2CC(F)(F)F)CCOC1` (stereo partly drawn) [Example 1-40, (E)-7-(((3R,4S)-4-fluoropyrrolidin-3-yl)amino)-3-(2,2,2-trifluoroethyl)benzo[b]thiophene-2-carbaldehyde O-((3-hydroxytetrahydrofuran-3-yl)methyl) oxime] yielded an EC50 of 0.1 to 1 µM.
For `CN1CC[C@@H](Nc2cccc3c2cc(/C=N/OCC2CC2)n3CC(F)(F)F)[C@@H](F)C1` [Example 2-1, (E)-4-(((3S,4R)-3-fluoro-1-methylpiperidin-4-yl)amino)-1-(2,2,2-trifluoroethyl)-1H-indole-2-carbaldehyde O-cyclopropylmethyl oxime], the EC50 was over 1 µM.
Work on `Cn1cnc(CO/N=C/c2sc3c(N[C@@H]4CNC[C@@H]4F)cccc3c2CC(F)(F)F)n1` [Example 3-4, (E)-7-(((3R,4S)-4-fluoropyrrolidin-3-yl)amino)-3-(2,2,2-trifluoroethyl)benzo[b]thiophene-2-carbaldehyde O-((1-methyl-1H-1,2,4-triazol-3-yl)methyl) oxime] yielded an EC50 of 0.1 to 1 µM.
`OC1COCC1O/N=C/c1sc2c(N[C@@H]3CNC[C@@H]3F)cccc2c1CC(F)(F)F` (stereo partly drawn) [Example 1-37, (E)-7-(((3R,4S)-4-fluoropyrrolidin-3-yl)amino)-3-(2,2,2-trifluoroethyl)benzo[b]thiophene-2-carbaldehyde O-(4-hydroxytetrahydrofuran-3-yl) oxime] was tested, and the EC50 was under 0.1 µM.
With `COc1cccc(CO/N=C/c2sc3c(N[C@@H]4CCN(C)C[C@@H]4F)cccc3c2CC(F)(F)F)n1` [Example 2-27, (E)-7-(((3S,4R)-3-fluoro-1-methylpiperidin-4-yl)amino)-3-(2,2,2-trifluoroethyl)benzo[b]thiophene-2-carbaldehyde O-((6-methoxypyridin-2-yl)methyl) oxime] the EC50 was 0.1 to 1 µM.

Source: patent US20250120961A1, “P53 MODULATORS” (Nested Therapeutics, Inc., priority 2023, published 2025)
